Assay results: ChEMBL document CHEMBL1201862, “PubChem BioAssay data set” (2004)
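All cell lines were grown in 96-well plates and treated with compound for 48 hours. The concentration for 50% growth inhibition is given as GI50.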 Activity calls are given as the source filed them. Rule as the data show it: active = GI50 up to about 1.1 µM and inactive = higher.

Assays:
Assay in all cases: NCI-60 cell line screen, 48 h
OVCAR-4 = tested on: OVCAR-4
SW-620 = tested on: SW-620
MDA-N = tested on: MDA-N
NCI-H226 = tested on: NCI-H226
RXF 393 = tested on: RXF 393
MDA-MB-231 = tested on: MDA-MB-231
A549 = tested on: A549
SF-539 = tested on: SF-539
HCT-116 = tested on: HCT-116
HCC 2998 = tested on: HCC 2998
SNB-19 = tested on: SNB-19
UACC-257 = tested on: UACC-257
KM12 = tested on: KM12
ACHN = tested on: ACHN
UACC-62 = tested on: UACC-62
OVCAR-8 = tested on: OVCAR-8
CAKI-1 = tested on: CAKI-1
SK-MEL-5 = tested on: SK-MEL-5
HOP-92 = tested on: HOP-92
OVCAR-5 = tested on: OVCAR-5
TK-10 = tested on: TK-10
Malme-3M = tested on: Malme-3M
DU-145 = tested on: DU-145
MCF7 = tested on: MCF7
PC-3 = tested on: PC-3
786-0 = tested on: 786-0
A498 = tested on: A498
EKVX = tested on: EKVX
SNB-75 = tested on: SNB-75
SF-295 = tested on: SF-295
NCI/ADR-RES = tested on: NCI/ADR-RES
COLO 205 = tested on: COLO 205
U-251 = tested on: U-251
NCI-H522 = tested on: NCI-H522
SN12C = tested on: SN12C
NCI-H23 = tested on: NCI-H23
UO-31 = tested on: UO-31
NCI-H460 = tested on: NCI-H460
SR = tested on: SR
HCT-15 = tested on: HCT-15
HL-60 = tested on: HL-60
M14 = tested on: M14
SK-MEL-28 = tested on: SK-MEL-28
OVCAR-3 = tested on: OVCAR-3
SK-OV-3 = tested on: SK-OV-3
CCRF-CEM = tested on: CCRF-CEM
RPMI-8226 = tested on: RPMI-8226
LOX IMVI = tested on: LOX IMVI
SK-MEL-2 = tested on: SK-MEL-2
IGROV-1 = tested on: IGROV-1
K562 = tested on: K562
BT-549 = tested on: BT-549
MDA-MB-435 = tested on: MDA-MB-435
MOLT-4 = tested on: MOLT-4

CC(C)CC(NC(=O)C(CCI)Cc1ccccc1)C(=O)Nc1ccccc1 (centres undefined)
GI50 (OVCAR-4): > 100 µM (inactive) | GI50 (SW-620): 49.8 µM (inactive) | GI50 (MDA-N): > 100 µM (inactive) | GI50 (NCI-H226): 58.6 µM (inactive) | GI50 (RXF 393): > 100 µM (inactive) | GI50 (MDA-MB-231): > 100 µM (inactive) | GI50 (A549): 80.9 µM (inactive) | GI50 (SF-539): > 100 µM (inactive) | GI50 (HCT-116): 43.4 µM (inactive) | GI50 (HCC 2998): > 100 µM (inactive) | GI50 (SNB-19): 98.2 µM (inactive) | GI50 (UACC-257): > 100 µM (inactive) | GI50 (KM12): 37.5 µM (inactive) | GI50 (ACHN): 53.5 µM (inactive) | GI50 (UACC-62): > 100 µM (inactive) | GI50 (OVCAR-8): 49.5 µM (inactive) | GI50 (CAKI-1): > 100 µM (inactive) | GI50 (SK-MEL-5): 55.3 µM (inactive) | GI50 (HOP-92): > 100 µM (inactive) | GI50 (OVCAR-5): > 100 µM (inactive) | GI50 (TK-10): 88.7 µM (inactive) | GI50 (Malme-3M): > 100 µM (inactive) | GI50 (DU-145): > 100 µM (inactive) | GI50 (MCF7): 39.7 µM (inactive) | GI50 (PC-3): 51.1 µM (inactive) | GI50 (786-0): > 100 µM (inactive) | GI50 (A498): > 100 µM (inactive) | GI50 (EKVX): 42 µM (inactive) | GI50 (SNB-75): 93.8 µM (inactive) | GI50 (SF-295): > 100 µM (inactive) | GI50 (NCI/ADR-RES): 19 µM (inactive) | GI50 (COLO 205): 95.9 µM (inactive) | GI50 (U-251): > 100 µM (inactive) | GI50 (NCI-H522): 27.7 µM (inactive) | GI50 (SN12C): > 100 µM (inactive) | GI50 (NCI-H23): 49 µM (inactive) | GI50 (UO-31): 22.1 µM (inactive) | GI50 (NCI-H460): 80.2 µM (inactive) | GI50 (SR): 22.8 µM (inactive) | GI50 (HCT-15): 49.9 µM | GI50 (HL-60): 18 µM (inactive) | GI50 (M14): 35.6 µM (inactive) | GI50 (SK-MEL-28): > 100 µM (inactive) | GI50 (OVCAR-3): > 100 µM (inactive) | GI50 (SK-OV-3): > 100 µM (inactive) | GI50 (CCRF-CEM): 30.1 µM (inactive) | GI50 (RPMI-8226): 36.9 µM (inactive) | GI50 (LOX IMVI): 33.3 µM (inactive) | GI50 (SK-MEL-2): > 100 µM (inactive) | GI50 (IGROV-1): 51.1 µM (inactive) | GI50 (K562): 44.6 µM (inactive) | GI50 (BT-549): 10.8 µM (inactive) | GI50 (MDA-MB-435): 58.5 µM (inactive) | GI50 (MOLT-4): 26.7 µM (inactive)
